Test results: patent US6916905B2, “Dmt-Tic di-and tri-peptidic derivatives and related compositions and methods of use” (The United States of America as represented by the …, priority 2000, dated 2005)
Read-outs that look alike come from different tables or passages of the source. Marks after values point to notes of the source that are not given here. Non-standard residues stand in square brackets, D forms with d. Residues, ends and D or L forms follow the SMILES beside them. *: point of attachment. Dmt = Cc1cc(O)cc(C)c1C[C@H](N)C(=O)O; Tic = O=C(O)[C@@H]1Cc2ccccc2CN1; NHtBu = CC(C)(C)N*

Key:
δ-opioid receptors [1] = biological target: T1, δ-opioid receptors (Rattus norvegicus, UniProt P33533); experiment: Rat brain synaptosome (P2) binding, agonist [3H]DPDPE (Example 47); conditions: for δ/μ selectivity, in words: from Table II binding; for Agonist K1μ/Kiδ: selectivity, Kiδ from agonist radioligand [3H]DPDPE
T1 construct: assayed with a rat brain synaptosomal preparation (P2); from tissue; host or cells: rat brain P2 synaptosomes
Procedure: (§3) Briefly, the agonists [^3H]DPDPE (30-60 Ci/mmol, NEN-DuPont) and [^3H]DAGO (30-60 Ci/mmol, Amersham) were used to label δ and μ sites, respectively, under saturation binding conditions (2 hrs at 22° C.). Excess unlabeled peptide (2 μM) established non-specific binding levels and the labeled membranes were rapidly filtered on Whatman GF/C glass fibre filters, thoroughly washed, dried and measured for radioactivity using CytoScint (ICN, Irvine, Calif.). […] The affinity constants (Ki) were calculated according to Cheng and Prusoff (Biochem. Pharmacol. 22: 3099-3108 (1973)).

μ receptors [2] = biological target: T2, μ receptors (Cavia porcellus, UniProt P97266); experiment: Guinea pig ileum (GPI) functional bioassay (Example 48)
Procedure: (§1) The functional bioactivity of the present inventive compounds was assessed using standard functional bioassays of δ and μ activity in MVD and GPI (Salvadori et al. (1995), supra; and Salvadori et al., J. Med. Chem. 36: 3748-3756 (1993)). […] Dose-response curves were obtained (Salvadori et al. (1995), supra) for both tissues. […] Data were derived from at least four independent tissue samples and dose-response curves from which the pA2 values were determined (Salvadori et al. (1997), supra) according to Arunlakshana and Schild (Br. J. Pharmacol. 14: 48-58 (1959)).

μ-opioid receptors = biological target: T3, μ-opioid receptors (Rattus norvegicus, UniProt P33535); experiment: Rat brain synaptosome (P2) binding, [3H]DAGO (Example 47)
T3 construct: assayed with a rat brain synaptosomal preparation (P2); from tissue; host or cells: rat brain P2 synaptosomes

δ-opioid receptors [3] = biological target: T1, δ-opioid receptors; experiment: Rat brain synaptosome (P2) binding, δ antagonist [3H]N,N(CH3)2-Dmt-Tic-OH (Example 47); conditions: for Antagonist K1μ/Kiδ: selectivity, Kiδ from antagonist radioligand [3H]N,N(CH3)2-Dmt-Tic-OH
Procedure: as §3

hMDR-1 = hMDR-1 (Homo sapiens, UniProt P08183); experiment: Calcein AM assay for Pgp in hMDR-1 transfected G-185 fibroblasts (Example 49); conditions: for order of inhibition of hMDR-1: rank within amide series; for inhibition of hMDR-1 (Pgp), in words: calcein fluorescence
Procedure: Stably transfected G-185 fibroblasts containing hMDR-1 and NIH 3T3 cell lines were grown to confluent monolayers in DMEM containing 4.5 g glucose/1, 10% fetal calf serum, L-glutamine, penicillin (50 units/ml), streptomycin (50 μg/ml) and 1 mM sodium pyruvate in 5% CO2 at 37° C. G-185 cells were maintained in […] colchicine.
The assay for Pgp is based on the diffusion of non-fluorescent calcein AM across the cell membrane. Calcein AM is then hydrolyzed and accumulates as the fluorescent calcein. In transfected cells expressing excess hMDR-1, Pgp extrudes calcein AM from the cell before hydrolysis occurs; inhibition of hMDR-1 results in the accumulation of intracellular calcein. Transfected G-185 cells and the NIH 3T3 cells were analyzed in triplicate using seven graded dosages of verapamil or the opioid peptides in 96-well plates. Cells (2.5×10^6/well) were incubated in 100 μl culture medium for 15 min at 37° C. and 50 μl of 1 μM calcein AM in PBS, plus 50 μl of verapamil or one of the present inventive compounds in PBS, or 100 μl of PBS alone (control) were added. Cells were mixed and incubated for 15 min at 37° C., then centrifuged for 5 min at 2,000×g, and then washed three times in 200 μl PBS. Cell pellets were resuspended in 200 μl PBS and transferred to white Microfluor Plates (Nunc, Copenhagen, Denmark) in order to measure calcein-specific fluorescence (494 nm absorption; 517 nm emission). Internal controls were carried out with each experiment using verapamil and PBS in order to compare the consistency between cell preparations. Means±SE (error bars) were determined and plotted using Prism™ (GraphPad, San Diego, Calif.).

δ receptors [4] = biological target: T4, δ receptors (Mus musculus, UniProt P32300)
Procedure: as §1

δ receptors [5] = biological target: T5, δ receptors (Rattus norvegicus, UniProt P33533); experiment: Radio-receptor competition assay, rat brain synaptosomes, [3H]DPDPE (Example 74); type: binding; conditions: for Ki: rat brain P2 synaptosomes, [3H]DPDPE, read-out: Receptor affinity (nM) Kiδ; for μ/δ: selectivity Kiμ/Kiδ
T5 construct: assayed with a rat brain synaptosomal preparation (P2); from tissue; host or cells: rat brain P2 synaptosomes
Procedure: (§2) After 120 min incubation at room temperature (23-24° C.), the samples were rapidly filtered through Whatman GF/C glass fiber filers and washed three times with 2 ml ice-cold 0.05 M Tris, pH 7.4-7.5, containing 0.1% BSA. Presoaking filters in 0.1% polyethylenimine is only required in assays with peptides carrying an overall positive charge, such as dynorphin or nociceptin (Guerrini et al., J. Med. Chem., 40: 1789-1793 (1997)). Non-specific binding was determined using 2 μM unlabeled DPDPE or DAGO for δ or μ assays, respectively. The Ki data, determined according to Cheng and Prusoff (Cheng et al., Biochem. Pharmacol., 22: 3099-3108 (1973)), represent the means±SE from 3 or more independent assays using at least 3 different synaptosome preparations and testing the analogues with 5-8 graded dosages over 2-3 orders of magnitude in concentration.

μ receptors [6] = biological target: T6, μ receptors (Rattus norvegicus, UniProt P33535); experiment: Radio-receptor competition assay, rat brain synaptosomes, [3H]DAGO (Example 74); type: binding; conditions: for Ki: rat brain P2 synaptosomes, [3H]DAGO, read-out: Receptor affinity (nM) Kiμ
T6 construct: assayed with a rat brain synaptosomal preparation (P2); from tissue; host or cells: rat brain P2 synaptosomes
Procedure: as §2

μ receptors [7] = biological target: T2, μ receptors; conditions: Balboni et al. (2000); read-out: μ agonist activity IC50, published data; cited from earlier work
δ receptors [8] = biological target: T4, δ receptors; experiment: MVD functional pharmacological bioassay (Example 75); parameters: A single MVD was suspended in 4 ml modified Kreb's solution; from tissue; host or cells: mouse vas deferens
δ receptors [9] = biological target: T4, δ receptors; parameters: A single MVD was suspended in 4 ml modified Kreb's solution; from tissue; host or cells: mouse vas deferens; conditions: Balboni et al. (2000); cited from earlier work
δ-opioid receptors [10] = biological target: T1, δ-opioid receptors; conditions: selectivity; Kiδ from [3H]DPDPE; cells marked a/b: Salvadori et al. (1995), (1997); cited from earlier work
δ-opioid receptors [11] = biological target: T1, δ-opioid receptors; conditions: radioligand; Kertesz et al. (1998); cited from earlier work
[12] = MVD pA2 (range), δ antagonism against deltorphin C, mean (range)
[13] = δ antagonism, Ke = antilog of pA2
[14] = rat brain synaptosomes (P2), mean ± SEM, n in parentheses, read-out: Kiδ(nM) [^3H]DPDPE
[15] = rat brain synaptosomes (P2), mean ± SEM, n in parentheses, read-out: Kiμ (nM) [^3H]DAGO

Sequence of hMDR-1 (P08183 whole entry): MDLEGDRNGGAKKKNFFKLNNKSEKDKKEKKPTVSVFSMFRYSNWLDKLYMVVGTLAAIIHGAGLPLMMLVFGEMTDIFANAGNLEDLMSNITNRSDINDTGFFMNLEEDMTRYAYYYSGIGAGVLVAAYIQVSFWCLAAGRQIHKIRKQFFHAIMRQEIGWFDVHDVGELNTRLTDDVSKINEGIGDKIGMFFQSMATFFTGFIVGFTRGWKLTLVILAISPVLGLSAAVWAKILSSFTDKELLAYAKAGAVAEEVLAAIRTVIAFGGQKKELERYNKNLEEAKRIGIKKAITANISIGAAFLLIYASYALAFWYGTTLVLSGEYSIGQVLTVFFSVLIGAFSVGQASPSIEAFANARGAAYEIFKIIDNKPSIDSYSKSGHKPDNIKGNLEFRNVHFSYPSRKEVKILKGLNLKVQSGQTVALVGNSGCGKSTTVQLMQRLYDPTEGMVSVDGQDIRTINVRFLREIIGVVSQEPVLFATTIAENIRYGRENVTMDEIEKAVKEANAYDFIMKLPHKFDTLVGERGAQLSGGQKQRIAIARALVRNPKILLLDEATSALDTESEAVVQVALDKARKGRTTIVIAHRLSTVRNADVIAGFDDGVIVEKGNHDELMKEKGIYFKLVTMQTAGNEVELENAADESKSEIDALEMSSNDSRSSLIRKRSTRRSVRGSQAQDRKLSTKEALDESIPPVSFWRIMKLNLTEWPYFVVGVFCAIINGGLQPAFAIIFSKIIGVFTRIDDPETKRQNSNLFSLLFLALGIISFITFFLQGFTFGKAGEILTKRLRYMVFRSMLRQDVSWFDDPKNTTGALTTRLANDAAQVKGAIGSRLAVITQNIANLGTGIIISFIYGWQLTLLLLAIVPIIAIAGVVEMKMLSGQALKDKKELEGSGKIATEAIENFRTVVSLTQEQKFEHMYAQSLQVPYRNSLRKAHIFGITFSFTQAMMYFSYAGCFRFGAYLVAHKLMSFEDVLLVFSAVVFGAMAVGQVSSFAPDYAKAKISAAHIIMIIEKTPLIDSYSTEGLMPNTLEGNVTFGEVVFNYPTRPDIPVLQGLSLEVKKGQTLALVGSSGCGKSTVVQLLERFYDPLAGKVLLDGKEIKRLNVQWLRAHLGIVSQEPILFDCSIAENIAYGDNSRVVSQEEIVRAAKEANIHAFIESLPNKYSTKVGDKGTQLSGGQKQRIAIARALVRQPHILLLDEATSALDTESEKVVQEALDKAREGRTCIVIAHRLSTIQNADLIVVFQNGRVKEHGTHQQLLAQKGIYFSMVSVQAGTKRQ
T4 sequence (P32300 whole entry): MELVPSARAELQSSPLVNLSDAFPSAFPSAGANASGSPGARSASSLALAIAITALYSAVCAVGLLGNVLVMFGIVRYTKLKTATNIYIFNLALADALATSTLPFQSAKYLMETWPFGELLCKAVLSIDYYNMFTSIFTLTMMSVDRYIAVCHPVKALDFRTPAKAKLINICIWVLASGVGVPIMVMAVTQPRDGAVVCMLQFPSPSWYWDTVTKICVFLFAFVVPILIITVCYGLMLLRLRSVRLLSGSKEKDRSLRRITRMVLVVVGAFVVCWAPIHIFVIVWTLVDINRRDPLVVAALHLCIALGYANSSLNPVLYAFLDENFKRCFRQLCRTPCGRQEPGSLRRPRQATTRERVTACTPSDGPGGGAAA
T6 sequence (P33535 whole entry): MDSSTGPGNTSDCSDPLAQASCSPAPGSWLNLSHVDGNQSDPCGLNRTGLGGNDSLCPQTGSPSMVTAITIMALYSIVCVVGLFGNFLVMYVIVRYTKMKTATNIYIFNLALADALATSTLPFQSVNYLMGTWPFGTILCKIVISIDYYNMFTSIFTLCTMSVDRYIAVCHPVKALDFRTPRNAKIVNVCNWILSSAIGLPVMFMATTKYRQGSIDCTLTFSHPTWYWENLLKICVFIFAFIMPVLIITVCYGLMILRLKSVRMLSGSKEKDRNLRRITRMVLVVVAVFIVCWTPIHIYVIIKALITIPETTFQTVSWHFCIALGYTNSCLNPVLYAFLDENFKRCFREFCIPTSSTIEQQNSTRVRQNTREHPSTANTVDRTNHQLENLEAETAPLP
T3 sequence (P33535 whole entry): as above
T2 sequence (P97266 whole entry, looked up): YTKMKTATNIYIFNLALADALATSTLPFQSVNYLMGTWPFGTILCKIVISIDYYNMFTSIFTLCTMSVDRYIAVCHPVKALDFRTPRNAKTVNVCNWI
T5 sequence (P33533 whole entry): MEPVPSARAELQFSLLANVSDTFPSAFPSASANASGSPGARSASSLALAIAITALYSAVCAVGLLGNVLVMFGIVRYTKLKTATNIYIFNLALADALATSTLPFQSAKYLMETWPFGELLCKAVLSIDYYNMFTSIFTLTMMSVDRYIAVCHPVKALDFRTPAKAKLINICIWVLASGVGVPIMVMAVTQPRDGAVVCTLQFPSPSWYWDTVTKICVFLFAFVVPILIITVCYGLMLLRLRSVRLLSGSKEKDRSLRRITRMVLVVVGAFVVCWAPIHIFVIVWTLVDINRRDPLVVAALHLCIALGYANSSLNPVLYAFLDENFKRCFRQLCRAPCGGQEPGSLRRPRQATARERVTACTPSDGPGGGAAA
T1 sequence (P33533 whole entry): as above

Cc1cc(O)cc(C)c1C[C@H](N)C(=O)N1Cc2ccccc2C[C@H]1C(=O)NC12CC3CC(CC(C3)C1)C2 [Compound 11, H-Dmt-Tic-NH-1-adamantane]
Ki (δ-opioid receptors [1]): 0.26 ± 0.05 nM
δ/μ selectivity, in words (δ-opioid receptors [1]): weakly μ selective
Agonist K1μ/Kiδ (δ-opioid receptors [1]): 3
EC50 (μ receptors [2]): 36 nM
bioactivity on GPI (μ), in words (μ receptors [2]): moderate μ agonism
Ki (μ-opioid receptors): 0.76 ± 0.05 nM
Ki (δ-opioid receptors [3]): 1.01 ± 0.26 nM
Antagonist K1μ/Kiδ (δ-opioid receptors [3]): 0.8
order of inhibition of hMDR-1 (hMDR-1): (compound 11)>H-Dmt-Tic-Ala-NH-1-adamantane (compound 21)
EC50 (δ receptors [4]): 870 nM
Kb (δ receptors [4]; MVD Ke(nM), δ antagonism, Ke = antilog of pA2): > 10000 nM

Cc1cc(O)cc(C)c1C[C@@H](C(=O)N1Cc2ccccc2C[C@H]1C(=O)NC12CC3CC(CC(C3)C1)C2)N(C)C [Compound 15, N,N(Me)2-Dmt-Tic-NH-1-adamantane]
Ki (δ-opioid receptors [1]): 0.16 ± 0.17 nM
δ/μ selectivity, in words (δ-opioid receptors [1]): essentially nonselective
Agonist K1μ/Kiδ (δ-opioid receptors [1]): 7
EC50 (μ receptors [2]): 16 nM
bioactivity on GPI (μ), in words (μ receptors [2]): clearly displayed μ agonism
Ki (μ-opioid receptors): 1.12 ± 0.1 nM
rise in μ affinity relative to N,N(Me)2-Dmt-Tic-OH (μ-opioid receptors): ~2,200 fold
Ki (δ-opioid receptors [3]): 0.12 ± 0.02 nM
Antagonist K1μ/Kiδ (δ-opioid receptors [3]): 9
order of inhibition of hMDR-1 (hMDR-1): (compound 15)=H-Dmt-Tic-NH-1-adamantane (compound 11)
Kb (δ receptors [4]; [12]): 0.871 nM
MVD Ke (δ receptors [4]; [13]): 0.87 nM

Cc1cc(O)cc(C)c1C[C@H](N)C(=O)N1Cc2ccccc2C[C@H]1C(=O)N[C@@H](C)C(=O)NC(C)(C)C [Compound 20, H-Dmt-Tic-Ala-NH-tBu] (H-[Dmt]-[Tic]-Ala-NHtBu; N-terminus and C-terminus assumed)
Ki (δ-opioid receptors [1]; [14]): 0.066 ± 0.01 nM
Agonist K1μ/Kiδ (δ-opioid receptors [1]): 61
EC50 (μ receptors [2]): > 10000 nM
Kb (μ receptors [2]): 174 nM
GPI Ke (μ receptors [2]; μ antagonism): 0.17 µM
Ki (μ-opioid receptors; [15]): 4.03 ± 0.21 nM
Ki (δ-opioid receptors [3]; rat brain synaptosomes (P2), δ antagonist radioligand, mean ± SEM, n in parentheses, read-out: Kiδ(nM) [^3H]N,N(CH3)2-Dmt-Tic-OH): 0.08 ± 0.02 nM
Antagonist K1μ/Kiδ (δ-opioid receptors [3]): 48
order of inhibition of hMDR-1 (hMDR-1): (compound 20)>H-Dmt-Tic-NH-tBu (compound 9)
bioactivity on MVD (δ), in words (δ receptors [4]): highest δ-antagonist functional bioactivities
Kb (δ receptors [4]; [12]): 0.692 nM
MVD Ke (δ receptors [4]; [13]): 0.69 nM

Cc1cc(O)cc(C)c1CC(N)C(=O)N1Cc2ccccc2CC1c1nc2ccccc2[nH]1 (stereo not shown) [Compound 23, 2-amino-1-[3-(1H-benzoimidazole-2-yl)-3,4-dihydro-1H-isoquinoline-2-yl]-3-(4-hydroxyl-2,6-dimethylphenyl)-propane-1-one]
δ binding affinity greater than H-Dmt-Tic-ol (δ receptors [5]): 3 fold
δ binding affinity higher than H-Dmt-Tic-NH2 (δ receptors [5]): 10 fold
Ki (δ receptors [5]): 0.13 nM
μ/δ (δ receptors [5]): 7.28
increase in μ receptor affinity relative to H-Dmt-Tic-NH2 (μ receptors [6]): ~40 fold
Ki (μ receptors [6]): 7.22 nM
IC50 (μ receptors [7]): 30 nM
reduction of electrical stimulation of the tissue (δ receptors [8]; high concentration (up to 1 μM)): 83%
δ antagonism pA2, published data (δ receptors [9]): 7.67

Cc1cc(O)cc(C)c1C[C@H](N)C(=O)N1Cc2ccccc2C[C@H]1C(=O)NCc1nc2ccccc2[nH]1 [Compound 24, H-Dmt-Tic-NH—CH2-Bid]
δ activity on MVD, in words (δ receptors [8]): potent δ-agonist activity
MVD, antagonist activity (pA2) N,N(CH3)2-Dmt-Tic-OH (δ receptors [8]; pA2 of N,N(CH3)2-Dmt-Tic-OH against the listed δ agonist): 9.70
MVD, antagonist activity (pA2) naloxone (δ receptors [8]; pA2 of naloxone against the listed δ agonist): 7.45
Functional Bioactivity MVD (pEC50) (δ receptors [8]; δ agonism): 9.90

Cc1cc(O)cc(C)c1C[C@H](N)C(=O)N1Cc2ccccc2C[C@H]1C(=O)NCC(=O)NCc1nc2ccccc2[nH]1 [Compound 26, H-Dmt-Tic-Gly-NH—CH2-Bid]
δ/μ selectivity, in words (δ receptors [5]; from Table IV binding): essentially non-selective
μ/δ (δ receptors [5]): 353
δ activity on MVD, in words (δ receptors [8]): potent δ antagonist activity

Cc1cc(O)cc(C)c1C[C@H](N)C(=O)N1Cc2ccccc2C[C@H]1C(=O)N[C@@H](C)C(N)=O [H-Dmt-Tic-Ala-NH2, reference compound] (H-[Dmt]-[Tic]-Ala-NH2)
Ki (δ-opioid receptors [1]; [14]): 0.24 ± 0.02 nM
Ki (δ receptors [5]): 0.22 nM
μ/δ (δ receptors [5]): 195
Ki (μ-opioid receptors; [15]): 47 ± 3.4 nM
Agonist K1μ/Kiδ (δ-opioid receptors [10]): 195^a
Ki (μ receptors [6]): 47 nM
Antagonist K1μ/Kiδ (δ-opioid receptors [3]): 68
inhibition of hMDR-1 (Pgp), in words (hMDR-1): inactive
MVD Ke (δ receptors [4]; [13]): 9.0 nM

Cc1cc(O)cc(C)c1C[C@H](N)C(=O)N1Cc2ccccc2C[C@H]1C(=O)N[C@@H](C)C(=O)O [H-Dmt-Tic-Ala-OH, reference compound] (H-[Dmt]-[Tic]-Ala-OH)
Agonist K1μ/Kiδ (δ-opioid receptors [10]): 2852^a
Antagonist K1μ/Kiδ (δ-opioid receptors [3]): 2784
MVD Ke (δ receptors [4]; [13]): 4.0 nM

Cc1cc(O)cc(C)c1C[C@H](N)C(=O)N1Cc2ccccc2C[C@H]1C(N)=O [H-Dmt-Tic-NH2] (H-[Dmt]-[Tic]-NH2)
Agonist K1μ/Kiδ (δ-opioid receptors [10]): 227^a

Cc1cc(O)cc(C)c1C[C@H](N)C(=O)N1Cc2ccccc2C[C@H]1C(=O)O [H-Dmt-Tic-OH, reference compound] (H-[Dmt]-[Tic]-OH)
Ki (μ-opioid receptors; [15]): 3320 ± 435 nM
Agonist K1μ/Kiδ (δ-opioid receptors [10]): 150800^a
Ki (μ receptors [6]): 3320 nM
MVD Ke (δ receptors [4]; [13]): 5.7 nM

Cc1cc(O)cc(C)c1C[C@H](N)C(=O)N1Cc2ccccc2C[C@H]1CO [H-Dmt-Tic-ol, reference compound]
μ/δ (δ receptors [5]): 344
Ki (μ receptors [6]): 151 nM

Cc1cc(O)cc(C)c1C[C@@H](C(=O)N1Cc2ccccc2C[C@H]1C(=O)O)N(C)C [N,N(Me)2-Dmt-Tic-OH, reference compound]
Ki (μ-opioid receptors; [15]): 2440 ± 462 nM
Agonist K1μ/Kiδ (δ-opioid receptors [10]): 20636^b
Antagonist K1μ/Kiδ (δ-opioid receptors [3]): 34785
inhibition of hMDR-1 (Pgp), in words (hMDR-1): inactive
MVD pA2 (range) (δ receptors [4]; δ antagonism against deltorphin C, mean (range)): 9.4

[^3H]N,N-(CH3)2-Dmt-Tic-OH
Kd (δ-opioid receptors [11]): 0.39 nM
